This note sets out measurements from ChEMBL document CHEMBL5260810, “Inhibition of bromodomain-containing protein 9 for the prevention of epigenetically-defined drug resistance” (Bioorg Med Chem Lett, 2017).

Data set [1] is described as follows: Cytotoxicity against human COV318 cells measured after 3 days. It counts as functional, cell-based. Particulars: COV318, 72 h.
Data set [2] can be described thus: Cytotoxicity against human NCE-G 124 cells measured after 3 days. The format is functional, cell-based. The conditions noted are these: NCE-G 124, 72 h.
The subject of data set [3] is OCI-AML-3. As to the kind of experiment: Cytotoxicity against human OCI-AML-3 cells measured after 3 days. The format is functional, cell-based. The conditions noted are these: OCI-AML-3, 72 h.
A short description of data set [4]: Kinetic solubility of the compound. The format is physicochemical. Particulars: read-out: Kinetic_solubility.
A short description of data set [5]: Cytotoxicity against human ATRFLOX cells measured after 3 days. The format is functional, cell-based. Particulars: 72 h.
For data set [6], the system named is HCC1954. The data set can be described thus: Cytotoxicity against human HCC1954 cells measured after 3 days. The format is functional, cell-based. Particulars: HCC1954, 72 h.
Data set [7] concerns SW626. The data set can be described thus: Cytotoxicity against human SW626 cells measured after 3 days. The format is functional, cell-based. The conditions noted are these: SW626, 72 h.
Data set [8] deals with HEY. The data set can be described thus: Cytotoxicity against human HEY cells measured after 3 days. The format is functional, cell-based. The conditions noted are these: 72 h.
Data set [9] relates to EOL1. As to the kind of experiment: Cytotoxicity against human EOL1 cells measured after 3 days. It counts as functional, cell-based. The conditions noted are these: EOL1, 72 h.
Data set [10] concerns NCI-H929. As to the kind of experiment: Cytotoxicity against human NCI-H929 cells measured after 3 days. It counts as functional, cell-based. The conditions noted are these: NCI-H929, 72 h.
A short description of data set [11]: Cytotoxicity against human KMS-28PE cells measured after 3 days. The format is functional, cell-based. The conditions noted are these: 72 h.
In data set [12] the test system is LN-18. The data set can be described thus: Cytotoxicity against human LN-18 cells measured after 3 days. The conditions noted are these: LN-18, 72 h. It counts as functional, cell-based.
The subject of data set [13] is TK-10. The data set can be described thus: Cytotoxicity against human TK-10 cells measured after 3 days. The format is functional, cell-based. Particulars: TK-10, 72 h.
Data set [14] deals with DU-4475. As to the kind of experiment: Cytotoxicity against human DU-4475 cells after 8 days. The conditions noted are these: DU-4475, 192 h. It counts as functional, cell-based.
Data set [15] can be described thus: Cytotoxicity against human OVCAR433 cells measured after 3 days. The format is functional, cell-based. Particulars: OVCAR433, 72 h.
Data set [16] concerns CWR22R. As to the kind of experiment: Cytotoxicity against human 22Rv1 cells after 8 days. The format is functional, cell-based. Particulars: 22Rv1, 192 h.
For data set [17], the system named is MOLM-13. The data set can be described thus: Cytotoxicity against human MOLM-13 cells measured after 3 days. The format is functional, cell-based. The conditions noted are these: MOLM-13, 72 h.
Data set [18] has as its system KU812 cell line. As to the kind of experiment: Cytotoxicity against human KU812 cell line measured after 3 days. The format is functional, cell-based. Particulars: KU812, 72 h.
Data set [19] concerns Jurkat. As to the kind of experiment: Cytotoxicity against human Jurkat cells measured after 3 days. The format is functional, cell-based. The conditions noted are these: 72 h.
Data set [20] deals with NAMALVA. As to the kind of experiment: Cytotoxicity against human NAMALVA cells measured after 3 days. It counts as functional, cell-based. The conditions noted are these: 72 h.

pIC50: −log10 of the molar value. In brackets after ≈: the same amount, converted by molar mass.

Regarding `C/C=C/Cn1cc(-c2cc(OC)c(C(=O)N3CCOCC3)cc2OC)c2cc(C)[nH]c2c1=O`, the negative-log IC50 (pIC50) in data set [1], in data set [2], in [3], in data set [5], in [6] and in data set [7] was 5.30 throughout. Moreover, the pIC50 in [8], in [9], in [10], in data set [11], in [12] and in data set [13] was 5.30 throughout. The pIC50 in data set [14] is 5.70; in data set [15], 5.30; in data set [16], 5.70; in data set [17] it was 5.30; in data set [18], 5.30; in [19], 5.30. In addition, the pIC50 in data set [20] is 5.30. Also, the solubility kinetic in data set [4] is 135 µM (≈ 61 µg/mL).

For orientation: pIC50 means the negative decadic logarithm of the IC50, by convention in mol/L. Read a low pIC50 as a high IC50.
